{
  "source": "patent US9157104B2",
  "about": "“Method to improve phosphate solubilization in plants” (Consiglio Nazionale delle Ricerche, priority 2009, dated 2015)",
  "key": {"acid phosphatase": {"system": "acid phosphatase", "experiment": "Acid phosphatase activity under P-starved conditions", "assay_type": "cell-based, S. meliloti", "conditions": "phosphate starvation; vs 1021 cells; compounds 0.5 mM, 3 hours at 30° C."}, "alkaline phosphatase": {"system": "alkaline phosphatase", "conditions": "phosphate starvation; vs 1021 cells; compounds 0.5 mM, 3 hours at 30° C.", "procedure": "Acid (A) and alkaline (B) phosphatase activity in S. meliloti cells under P-starved conditions. Log-phase cells grown in a MOPS-buffered minimal medium (starting P concentration=13 mM) were washed and then resuspended in the same medium containing no added P (1021 and RD64 strains) and 0.5 mM IAA, Trp or Ind (1021 strain). Treatments were performed for 3 hours at 30° C.\nAlkaline and acid phophatase enzymes under P-limiting conditions were assayed as previously reported (16). Units are reported as nanomoles per minute per milligram of protein. Protein concentrations were determined by the Bradford's assay."}, "[1]": {"system": "pho operon genes in S. meliloti cells", "experiment": "Quantitative RT-PCR analysis of pho operon genes", "assay_type": "cell-based", "conditions": "compounds 0.5 mM, 3 hours", "experimental": "FIG. S1. Quantitative RT-PCR analysis of pho operon genes in S. meliloti cells under P-sufficient conditions (13 mM K-phosphate). The relative expression level was >1 for genes more highly expressed in RD64 and in 1021 cells treated for 3 hours with 0.5 mM IAA, Ind, Trp, ICA and 2,4-D. The relative expression level was <1 for genes more highly expressed in 1021 cells (control). Error bars represent the standard deviation from three independent biological experiments.\nFIG. 1. Quantitative RT-PCR analysis of pho operon genes expression in S. meliloti cells under P-starving conditions. The relative expression level was >1 for genes more highly expressed in RD64 and in 1021 cells treated for 3 hours with 0.5 mM IAA, Ind, Trp, ICA and 2,4-D. The relative expression level was <1 for genes more highly expressed in 1021 cells (control). Error bars represent the standard deviation from five independent biological experiments (p<0.05).\nTotal RNA from P-sufficient and P-starved cells was isolated as previously described (5). cDNA were synthesized with the StrataScript™ reverse transcription reagents (Stratagene) and random hexamers as primers. Quantitative PCR was performed with the Power SYBR PCR Master Mix (Applied Biosystems). Reactions were run on the iCycler iQ (Bio-Rad). The thermo cycling condition were: 15 min at 95° C., 40 cycles of denaturation at 95° C. for 20 s, annealing (20 s) and extension (35 s) at 72° C. Specific primer pairs, designed using the Primer3 software, are shown.\nsmc02641 and smc00128 were used as housekeeping genes for data normalization in the comparative Ct method as previously described (8). Phosphatase Activity"}, "S. meliloti 1021": {"system": "S. meliloti 1021", "experiment": "Microarray gene expression of 1021 cells treated with 0.5 mM compound;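 also: cells were harvested 3 h after the start of each treatment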", "conditions": "P-sufficient (13 mM)", "procedure": "For P starvation experiments, cells of 1021 wild-type and RD64 strains were grown at 30° C. to mid exponential phase (OD600=0.6) in RMM broth containing 1% (w/v) mannitol as carbon source and 13 mM P, washed with RMM containing 0 P, resuspended in the same medium and then divided into three cultures. No P (−P), 1.0 mM P (P-starved cells) or 13 mM P (+P cells also named P-sufficient cells) was added into the three cultures, respectively. The P-starved and P-sufficient 1021 wild type cells were treated for 3.0 hours with 0.5 mM IAA. […] To rule out that this bacteria could be partially starved for Trp, RD64 cells were also treated with 0.5 mM Trp and used for microarrays and RT-PCR analyses. […] After 3 hours of each treatment, cell batches were collected, freezed and stored at −80° C. for use in experiments."}, "[2]": {"conditions": "1021 + 0.5 mM Indole vs untreated 1021"}, "[3]": {"conditions": "1021 + 0.5 mM ICA vs untreated 1021"}},
  "data": [
    {"compound": "c1ccc2[nH]ccc2c1", "note": "[Indole, indole]", "values": [
      {"measurement": "acid phosphatase activity", "setting": "acid phosphatase", "value": "unaffected, or only slightly increased"},
      {"measurement": "alkaline phosphatase activity", "setting": "alkaline phosphatase", "value": "unaffected, or only slightly increased"},
      {"measurement": "expression level of all five pho genes (RT-PCR)", "setting": "[1]; P-starved conditions, vs control 1021", "value": "only slightly induced or unchanged"},
      {"measurement": "M (log2 ratio of intensities) SMa1077 nex18", "setting": "S. meliloti 1021; [2]", "value": 0.7413},
      {"measurement": "M (log2 ratio of intensities) SMa1087 sma1087", "setting": "S. meliloti 1021; [2]", "value": 0.7199},
      {"measurement": "M (log2 ratio of intensities) SMa1128 degP4", "setting": "S. meliloti 1021; [2]", "value": 1.152},
      {"measurement": "M (log2 ratio of intensities) SMa1329 sma1329", "setting": "S. meliloti 1021; [2]", "value": 1.658},
      {"measurement": "M (log2 ratio of intensities) SMb21177 phoC", "setting": "S. meliloti 1021; [2]", "value": 1.282},
      {"measurement": "M (log2 ratio of intensities) SMb21183 htpG", "setting": "S. meliloti 1021; [2]", "value": 0.9544},
      {"measurement": "M (log2 ratio of intensities) SMc00182 smc00182", "setting": "S. meliloti 1021; [2]", "value": "−0.9429"},
      {"measurement": "M (log2 ratio of intensities) SMc00335 rpsA", "setting": "S. meliloti 1021; [2]", "value": "−0.7083"},
      {"measurement": "M (log2 ratio of intensities) SMc00364 rplT", "setting": "S. meliloti 1021; [2]", "value": "−1.373"},
      {"measurement": "M (log2 ratio of intensities) SMc00383 gst3", "setting": "S. meliloti 1021; [2]", "value": "−0.7478"},
      {"measurement": "M (log2 ratio of intensities) SMc01106 smc01106", "setting": "S. meliloti 1021; [2]", "value": 1.513},
      {"measurement": "M (log2 ratio of intensities) SMc01291 rpmD", "setting": "S. meliloti 1021; [2]", "value": "−1.485"},
      {"measurement": "M (log2 ratio of intensities) SMc01308 rplD", "setting": "S. meliloti 1021; [2]", "value": "−1.252"},
      {"measurement": "M (log2 ratio of intensities) SMc01311 tufA", "setting": "S. meliloti 1021; [2]", "value": "−0.711"},
      {"measurement": "M (log2 ratio of intensities) SMc01312 fusA1", "setting": "S. meliloti 1021; [2]", "value": 0.9128},
      {"measurement": "M (log2 ratio of intensities) SMc01318 rplL", "setting": "S. meliloti 1021; [2]", "value": "−0.7037"},
      {"measurement": "M (log2 ratio of intensities) SMc01946 livK", "setting": "S. meliloti 1021; [2]", "value": "−1.077"},
      {"measurement": "M (log2 ratio of intensities) SMc02501 atpD", "setting": "S. meliloti 1021; [2]", "value": "−1.405"},
      {"measurement": "M (log2 ratio of intensities) SMc02857 dnaK", "setting": "S. meliloti 1021; [2]", "value": 0.7321},
      {"measurement": "M (log2 ratio of intensities) SMc03159 smc03159", "setting": "S. meliloti 1021; [2]", "value": "−0.938"},
      {"measurement": "M (log2 ratio of intensities) SMc03167 smc03167", "setting": "S. meliloti 1021; [2]", "value": 0.7656},
      {"measurement": "M (log2 ratio of intensities) SMc03253 smc03253", "setting": "S. meliloti 1021; [2]", "value": 1.951},
      {"measurement": "M (log2 ratio of intensities) SMc03829 smc03829", "setting": "S. meliloti 1021; [2]", "value": 0.8604},
      {"measurement": "M (log2 ratio of intensities) SMc04040 ibpA", "setting": "S. meliloti 1021; [2]", "value": 2.449},
      {"measurement": "M (log2 ratio of intensities) SMc04087 smc04087", "setting": "S. meliloti 1021; [2]", "value": 1.944},
      {"measurement": "M (log2 ratio of intensities) SMc04114 pilA1", "setting": "S. meliloti 1021; [2]", "value": "−1.888"},
      {"measurement": "M (log2 ratio of intensities) SMc04140 smc04140", "setting": "S. meliloti 1021; [2]", "value": 1.411},
      {"measurement": "M (log2 ratio of intensities) SMc04141 gst9", "setting": "S. meliloti 1021; [2]", "value": 1.708}
    ]},
    {"compound": "O=C(O)c1c[nH]c2ccccc12", "note": "[ICA, indole-3-carboxylic acid]", "values": [
      {"measurement": "phoB regulatory gene expression (qRT-PCR)", "setting": "[1]; P-sufficient (13 mM K-phosphate), vs untreated 1021 cells", "value": "unaffected"},
      {"measurement": "M (log2 ratio of intensities) SMa1077 nex18", "setting": "S. meliloti 1021; [3]", "value": 0.9938},
      {"measurement": "M (log2 ratio of intensities) SMa1118 hspC2", "setting": "S. meliloti 1021; [3]", "value": 1.111},
      {"measurement": "M (log2 ratio of intensities) SMa1128 degP4", "setting": "S. meliloti 1021; [3]", "value": 1.148},
      {"measurement": "M (log2 ratio of intensities) SMa1306 virB9", "setting": "S. meliloti 1021; [3]", "value": 0.9404},
      {"measurement": "M (log2 ratio of intensities) SMb21183 htpG", "setting": "S. meliloti 1021; [3]", "value": 0.7619},
      {"measurement": "M (log2 ratio of intensities) SMc00323 rpsO", "setting": "S. meliloti 1021; [3]", "value": "−0.722"},
      {"measurement": "M (log2 ratio of intensities) SMc00335 rpsA", "setting": "S. meliloti 1021; [3]", "value": "−0.7763"},
      {"measurement": "M (log2 ratio of intensities) SMc00514 smc00514", "setting": "S. meliloti 1021; [3]", "value": 0.8721},
      {"measurement": "M (log2 ratio of intensities) SMc00537 smc00537", "setting": "S. meliloti 1021; [3]", "value": 0.9583},
      {"measurement": "M (log2 ratio of intensities) SMc00868 atpF", "setting": "S. meliloti 1021; [3]", "value": "−0.8306"},
      {"measurement": "M (log2 ratio of intensities) SMc00912 groES1", "setting": "S. meliloti 1021; [3]", "value": "−1.491"},
      {"measurement": "M (log2 ratio of intensities) SMc00913 groEL1", "setting": "S. meliloti 1021; [3]", "value": "−0.8349"},
      {"measurement": "M (log2 ratio of intensities) SMc01169 ald", "setting": "S. meliloti 1021; [3]", "value": 1.71},
      {"measurement": "M (log2 ratio of intensities) SMc01309 rplC", "setting": "S. meliloti 1021; [3]", "value": "−0.7558"},
      {"measurement": "M (log2 ratio of intensities) SMc01326 tufB", "setting": "S. meliloti 1021; [3]", "value": "−0.8768"},
      {"measurement": "M (log2 ratio of intensities) SMc01534 smc01534", "setting": "S. meliloti 1021; [3]", "value": 0.9277},
      {"measurement": "M (log2 ratio of intensities) SMc01793 smc01793", "setting": "S. meliloti 1021; [3]", "value": "−0.7625"},
      {"measurement": "M (log2 ratio of intensities) SMc02498 atpH", "setting": "S. meliloti 1021; [3]", "value": "−0.7281"},
      {"measurement": "M (log2 ratio of intensities) SMc02603 smc02603", "setting": "S. meliloti 1021; [3]", "value": 1.484},
      {"measurement": "M (log2 ratio of intensities) SMc03030 flgG", "setting": "S. meliloti 1021; [3]", "value": "−0.7501"},
      {"measurement": "M (log2 ratio of intensities) SMc03037 flaA", "setting": "S. meliloti 1021; [3]", "value": "−0.7114"},
      {"measurement": "M (log2 ratio of intensities) SMc03168 smc03168", "setting": "S. meliloti 1021; [3]", "value": 1.005},
      {"measurement": "M (log2 ratio of intensities) SMc03253 smc03253", "setting": "S. meliloti 1021; [3]", "value": 1.14},
      {"measurement": "M (log2 ratio of intensities) SMc03829 smc03829", "setting": "S. meliloti 1021; [3]", "value": 0.9065},
      {"measurement": "M (log2 ratio of intensities) SMc04040 ibpA", "setting": "S. meliloti 1021; [3]", "value": 1.474},
      {"measurement": "M (log2 ratio of intensities) SMc04114 pilA1", "setting": "S. meliloti 1021; [3]", "value": "−0.7274"},
      {"measurement": "M (log2 ratio of intensities) SMc04140 smc04140", "setting": "S. meliloti 1021; [3]", "value": 1.126},
      {"measurement": "M (log2 ratio of intensities) SMc04307 cyaD2", "setting": "S. meliloti 1021; [3]", "value": 1.012},
      {"measurement": "pho genes among those significantly affected (microarray)", "setting": "S. meliloti 1021; 1021 + 0.5 mM compound vs untreated 1021", "value": "did not find any pho genes"}
    ]}
  ]
}
